Marks after values point to notes of the source that are not given here. Bridge positions count the residues as written; N and C are the ends. Square brackets hold non-standard residues; d marks the D form. Peptide text beside a SMILES is read from it. * marks the point of attachment. Palmitoyl = CCCCCCCCCCCCCCCC(=O)*; Dab = NCC[C@H](N)C(=O)O; Dap = NC[C@H](N)C(=O)O; AEEA = NCCOCCOCC(=O)O
Key:
[1] = tested on: inflammatory cytokines (MCP1, IL-6, TNFα) in BALF; experiment: LPS ALI model: inflammatory cytokines in BALF by ELISA (Table 4); type: in vivo, mice; settings: LPS 0.05 mg/kg IT; SEQ 0.3 mg/kg SC, Sivelestat 150 mg/kg IP; 24 hours
Experimental: Animal care and treatment: Male C57BL/6J mice (6 weeks-old) were purchased from Kyudo (Saga, Japan) and maintained under a 12-hour light/12-hour dark cycle with free access to water and standard mouse diet (MF diet, Oriental Yeast Co., Ltd. Tokyo, Japan). Drug administration: Mice were administered LPS (0.05 mg/kg IT; Sigma-Aldrich) followed by treatment with various test articles, including Sivelestat (150 mg/kg; Nipro, Osaka, Japan), an inhibitor of human neutrophil elastase, injected IP as a positive control, and cationic alkyl modified CNPs (SEQ ID NO: 31, 29, and 30; 0.3 mg/kg (0.1 μmol/kg) SC). The test articles were administered immediately after LPS injection. Additionally, a normal control (NC) group without LPS administration and a Control group receiving only LPS without any test article were included. After 24 hours, the mice were euthanized under isoflurane anesthesia and BALF was harvested. Biochemical analysis: ALI and ARDS are often characterized by increased levels of inflammatory cytokines, including Macrophage Chemoattractant Protein-1 (MCP1), Interleukin-6 (IL-6), and […] (TNFα), in BALF. Decreases in their concentration can indicate the resolution of ALI/ARDS. Concentration of each cytokine (MCP1, IL-6, and TNFα) was measured using an ELISA kit (R&D SYSTEMS, Minneapolis M N). […] Statistical analysis was based on Dunnett's test performed by using GraphPad. (n=5, 8, 8, 8, and 8; NC, Control, PC, SEQ ID NO: 31, SEQ ID NO: 29). *** P<0.001, ** P<0.01, * P<0.05 vs each corresponding Control group.

[2] = tested on: Sprague Dawley rats; experiment: Dose-range finding of cationic alkyl modified CNP, subcutaneous bolus in rats (Table 2)
Experimental: (§2) Animal care and treatment: Male Sprague Dawley rats aged 8 to 10 weeks (Charles River, Hollister, CA) were housed in groups of two (n=3/group) in disposable polypropylene cages with rodent cob bedding at the PharmaIN animal facility. Animals had ad libitum access to food (LabDiet Pico Rodent #5053; Animal Specialties, Woodburn, OR) and water. Temperature (68-74° F.) and humidity (30-60%) were maintained within a controlled range, and a 12-hour light/dark cycle was used. […] Animals were monitored closely during the first 4 hours following injection, then hourly throughout the rest of the day for any signs of swelling or discoloration (dilatory side effect), lethargy (side effect), ataxia (ataxia is used as a marker of toxicity). Rats were allowed a 1-week wash-out period between bolus doses. Following final observations, animals were humanely euthanized through CO2 asphyxiation.

[3] = mouse, in vivo, sc, 1 mg/kg
Experimental: FIGS. 1A-1B: PK/PD Profiles for single subcutaneous (SC) injection of native CNP (SEQ ID NO: 32), SEQ ID NO: 31, and SEQ ID NO: 29 at 1.0 mg/kg (0.45, 0.33, and 0.33 μmol/kg, respectively) in mice. Error bars represent standard error of the mean. FIG. 1A) Plasma CNP [mean (SEM); n=5] in CD-1 mice after subcutaneous administration of 1.0 mg/kg of native CNP (SEQ ID NO: 32), SEQ ID NO: 31, and SEQ ID NO: 29 (0.45, 0.33, and 0.33 μmol/kg, respectively) in buffer. […] Plasma CNP in CD-1 mice was measured by CNP ELISA kit from Phoenix Pharmaceuticals (EKE-012-03, Burlingame, CA).
The animals were kept in PharmaIN animal facility with controlled temperature (68-74° F.) and humidity (30-60%), and a 12-hour light/dark cycle. […] Lead buffer was used to formulate or dissolve all test articles on the day of administration. […] Biochemical analysis: For pharmacokinetic study, plasma aliquots were thawed at 4° C. then analyzed using a commercially available CNP ELISA kit from Phoenix Pharmaceuticals (cat #EKE-012-03), which detects the cyclic structure of CNP and all CNP derivatives with the same level of reactivity to the ELISA kit. […] For pharmacodynamic or bioactivity study of cGMP, plasma aliquots were thawed at 4° C. then analyzed using a commercially available cGMP kit from Abcam (ab133052, Waltham, MA).

[4] = tested on: cGMP; experiment: Plasma cGMP after SC bolus of natriuretic peptides in CD-1 mice (pharmacodynamics, Table 3); type: in vivo; settings: SC bolus 1.0 mg/kg (≤0.45 μmol/kg), baseline 10 +/−8 pmol/ml, n = 3-5
In short: (§1)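 Peptides given SC in sterile water; retro-orbital blood at 2 and 6 h post-dose (two bleeds per mouse), K2EDTA plasma. Plasma cGMP by commercial immunoassay kit; ANP, BNP or CNP plasma levels by peptide-specific ELISA.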

[5] = tested on: cGMP; experiment: Plasma cGMP profile after single SC injection in CD-1 mice (FIG. 1B); type: in vivo; settings: 1.0 mg/kg SC, 0-24 hours
Experimental: The animals were kept in PharmaIN animal facility with controlled temperature (68-74° F.) and humidity (30-60%), and a 12-hour light/dark cycle. […] Lead buffer was used to formulate or dissolve all test articles on the day of administration. Blood sampling: Blood samples were collected via retro-orbital bleed at several timepoints (0, 0.5, 1, 2, 4, 6, 8, and 24 hours) and processed in K2EDTA tubes (2000× g; 15 min, 4° C. within 30 minutes after collection) to obtain plasma. Plasma samples were aliquoted and stored at −80° C. until analysis. Biochemical analysis: For pharmacokinetic study, plasma aliquots were thawed at 4° C. then analyzed using a commercially available CNP ELISA kit from Phoenix Pharmaceuticals (cat #EKE-012-03), which detects the cyclic structure of CNP and all CNP derivatives with the same level of reactivity to the ELISA kit. […] For pharmacodynamic or bioactivity study of cGMP, plasma aliquots were thawed at 4° C. then analyzed using a commercially available cGMP kit from Abcam (ab133052, Waltham, MA).

[6] = tested on: Sprague Dawley rats; settings: rat, in vivo, sc
Experimental: as §2

[7] = Plasma concentration of respective natriuretic peptide by ELISA after SC bolus in CD-1 mice (pharmacokinetics, Table 3); settings: male, CD-1, mouse, in vivo, sc, 1 mg/kg
In short: as §1

## CCCCCCCCCCCCCCCC(=O)NCCOCCOCC(=O)NCCOCCOCC(=O)NCCOCCOCC(=O)N[C@@H](CN)C(=O)N[C@@H](CN)C(=O)NCC(=O)N[C@@H](CC(C)C)C(=O)N[C@@H](CO)C(=O)N[C@@H](CCCCN)C(=O)NCC(=O)N[C@H]1CSSC[C@@H](C(=O)O)NC(=O)CNC(=O)[C@H](CC(C)C)NC(=O)CNC(=O)[C@H](CO)NC(=O)[C@H](CCC(N)=O)NC(=O)[C@H](CO)NC(=O)CNC(=O)[C@H]([C@@H](C)CC)NC(=O)[C@H](CCCNC(=N)N)NC(=O)[C@H](CC(=O)O)NC(=O)[C@H](CC(C)C)NC(=O)[C@H](CCCCN)NC(=O)[C@H](CC(C)C)NC(=O)CNC(=O)[C@H](Cc2ccccc2)NC1=O [SEQ ID NO: 31] ({Palmitoyl-AEEA-AEEA-AEEA}-[Dap][Dap]GLSKGCFGLKLDRIGSQSGLGC-OH; disulfide 8-24; C-terminus assumed)
[1]
  IL-6 in BALF: 56* % Of Control
  MCP1 in BALF: 50** % Of Control
  TNFα in BALF: 28** % Of Control
[2]; up to 10 mg/kg
  Ataxia** in n = 3: >10 mg/kg
  Lethargy* in n = 3: >10 mg/kg
[2]; value in parentheses
  Ataxia** in n = 3: (3.3) μmol/kg
  Lethargy* in n = 3: (3.3) μmol/kg
[3]
  Increase of baseline plasma CNP levels: over 5 fold
[4]
  Plasma concentration of cGMP, 2 hr: 98.34**** pmol/mL
  Plasma concentration of cGMP, 6 hr: 53.62*** pmol/mL
[5]
  Plasma cGMP levels over time compared to native CNP: sustained elevation of cGMP levels
[6]
  Swelling and/or Discoloration in n = 3: (3.3) μmol/kg
[7]
  level at 2 h: 76.8 ng/mL
  level at 6 h: 14.8 ng/mL

## CCCCCCCCCCCCCCCC(=O)NCCOCCOCC(=O)NCCOCCOCC(=O)NCCOCCOCC(=O)N[C@@H](CCN)C(=O)N[C@@H](CCN)C(=O)NCC(=O)N[C@@H](CC(C)C)C(=O)N[C@@H](CO)C(=O)N[C@@H](CCCCN)C(=O)NCC(=O)N[C@H]1CSSC[C@@H](C(=O)O)NC(=O)CNC(=O)[C@H](CC(C)C)NC(=O)CNC(=O)[C@H](CO)NC(=O)[C@H](CCC(N)=O)NC(=O)[C@H](CO)NC(=O)CNC(=O)[C@H]([C@@H](C)CC)NC(=O)[C@H](CCCNC(=N)N)NC(=O)[C@H](CC(=O)O)NC(=O)[C@H](CC(C)C)NC(=O)[C@H](CCCCN)NC(=O)[C@H](CC(C)C)NC(=O)CNC(=O)[C@H](Cc2ccccc2)NC1=O [SEQ ID NO: 29] ({Palmitoyl-AEEA-AEEA-AEEA}-[Dab][Dab]GLSKGCFGLKLDRIGSQSGLGC-OH; disulfide 8-24; C-terminus assumed)
[1]
  IL-6 in BALF: 76 % Of Control
  MCP1 in BALF: 69 % Of Control
  TNFα in BALF: 39** % Of Control
[2]; up to 10 mg/kg
  Ataxia** in n = 3: >10 mg/kg
  Lethargy* in n = 3: ≥9.5 mg/kg
[2]; value in parentheses
  Ataxia** in n = 3: (3.3) μmol/kg
  Lethargy* in n = 3: (3.1) μmol/kg
[3]
  Increase of baseline plasma CNP levels: > 10 fold
[4]
  Plasma concentration of cGMP, 2 hr: 157.31* pmol/mL
  Plasma concentration of cGMP, 6 hr: 65.65* pmol/mL
[5]
  Plasma cGMP levels over time compared to native CNP: sustained elevation of cGMP levels
[6]
  Swelling and/or Discoloration in n = 3: (3.1) μmol/kg
[7]
  level at 2 h: 18 ng/mL
  level at 6 h: 8.93 ng/mL
